Entries after “also recorded” stand apart in the source; their conditions may differ.
Assays:
wild-type JAK2 = experiment: Expression of wild-type JAK2 in K562 cells after siRNA treatment; format: cell-based, human; settings: 24 hours after treatment (FIG. 10)
Experimental: FIG. 10: Level of WT Jak2 expression in K562 cells remains unchanged 24 hours after treatment with siRNA specific to Jak2 V617.
Lane Je: K562 cells treated with siRNA WT Jak2
Lanes 0 to 6: K562 cells treated with siRNA V617F Jak2
Lane C−: 293HEK (no expression of JAK2).
(§1) The results are shown FIGS. 8, 9 and 10.

V617F JAK2 = experiment: Expression of V617F JAK2 in HEL cells after siRNA treatment; format: cell-based, human; settings: 24 hours after treatment (FIGS. 8 and 9)
Experimental: FIGS. 8 and 9: Expression of V617F Jak2 in HEL cells is reduced 24 hours after treatment with siRNA specific to JAK2 V617F Jak2 (siRNA #1, 3 and 4).
Lanes 0 to 6: HEL cells treated (1 to 6) or non-treated (0) with siRNA V617F Jak2.
Lane C+: 293HEK cells transfected with the V617F Jak2RV vector
as §1

Substance	level of WT Jak2 expression (wild-type JAK2)	expression of V617F Jak2 protein (V617F JAK2)
siRNA 1: siRNA specific to the V617F JAK2 mutation; said to correspond to SEQ ID No 25 (probably No 29, UGGAGUAUGUUUCUGUGGA) (listed as RNA, chemistry not given here)	without inhibiting	reduced; also recorded: inhibit
siRNA 3: siRNA specific to the V617F JAK2 mutation; said to correspond to SEQ ID No 26 (probably No 30, GGAGUAUGUUUCUGUGGAG) (listed as RNA, chemistry not given here)	without inhibiting	reduced; also recorded: inhibit
siRNA 4: siRNA specific to the V617F JAK2 mutation; said to correspond to SEQ ID No 27 (probably No 31, GAGUAUGUUUCUGUGGAGA) (listed as RNA, chemistry not given here)	without inhibiting	reduced; also recorded: inhibit

From patent US7781199B2, “Identification of a JAK2 mutation involved in Vaquez Polyglobulia” (priority 2004, dated 2010)
